Assay results: US9254274B2, “Method of treating Tourette'S disorder with GABA-aminotransferase inactivators” (CATALYST PHARMACEUTICAL PARTNERS, priority 2012, dated 2016)
“Also recorded” adds a separate entry of the source. Read-outs that look alike come from different tables or passages of the source.

Key:
[1] = molecular target: γ-aminobutyric acid aminotransferase (GABA-AT) (Sus scrofa, UniProt P80147); details: cited from earlier work
[2] = molecular target: neuronal GABA transporter (Mus musculus, UniProt P31648); details: Ludwig et al 1999; cited from earlier work
[3] = test system: patient diagnosed with Tourettes's Disorder (TD); assay: Clinical observations: single patient with Tourette's Disorder treated with vigabatrin; format: in vivo, human
Excerpt: The following instruments will be used to assess diagnosis and symptom severity at baseline: • a) SCID-CT. A clinician administered, semi-structured diagnostic interview specifically developed for use in clinical trials with adults • b) Yale Global Tic Severity Scale (Y-GTSS) (Leckman et al, 1989). The primary outcome measure for tic assessment is this investigator administered Global Severity score (sum of Total Tic score and TD Impairment score) on the Y-GTSS. It includes measures of tic frequency and severity and is widely used in drug efficacy trials involving TD. • c) Yale-Brown Obsessive Compulsive Scale (Y-BOCS) (Goodman et al, 1989). The Y-BOCS is a primary outcome measure of OCD symptoms and is rated by a study investigator. • d) Clinical Global Impression for Tics (Tics-CGI) (Leckman et al, 1988), for ADHD (ADHD-CGI), and for OCD (OCD-CGI) (Guy et al, 1976). Rated by the investigator. Global Improvement (1=very much improved, to 7=very much worse) scales. At intake, only the severity can be rated. In subsequent assessments, both severity and improvement will be rated. A CGI improvement of 1 (very much) or 2 (much) improved is considered to be an acceptable response to acute treatment as is a clinical severity rating of ≦3. • e) DSM-IV-TR Global Assessment of Functioning Scale (GAF) (APA DSM-IV-TR, 2000). The investigator-rated GAF ranges from 1-100, with scores over 70 indicating normal adjustment, and below 60, clinically significant impairment. • f) Hamilton Depression Scale. A clinician-rated scale used as a screening and diagnostic tool and a measure of severity of […] in adults, which has been widely used in clinical trials of young adults with MDD. • g) Hamilton Anxiety Scale. A clinician-rated scale used as a screening and diagnostic tool and a measure of severity of […] in adults, which has been widely used in clinical trials of young adults with MDD. • h) Conners Adult ADHD Rating Scale (CAARS:SL) Systematic self-report of ADHD symptoms in adults. • i) Adverse Events Form (SMURF) is completed at every visit to document all adverse events that occur during the study. • j) Demographics: Demographics and family history information are collected systematically during the Screening/Baseline Phase. • k) Vital signs, Weight and Height (pulse, blood pressure, weight, and height) will be assessed at every visit. • l) Abnormal Involuntary Movement Scale (AIMS) An investigator rated scale of abnormal involuntary movements including tardive dyskinesia. • m) Opthalmological evaluation including visual fields testing Visit 2 (Treatment Week 0):
A single patient diagnosed with Tourettes's Disorder (TD) was treated with vigabatrin for a period of about ten months. Subject is a person with a longstanding history of severe TD. Their course was characterized by typical attenuation of symptoms in late adolescence/early adulthood with an unusual, but not rare, acceleration of symptoms to lifetime peak severity in the last several years. This exacerbation occurred in temporal association with several significant life stressors. Marking the severity of their TD course was a history of fractured rib secondary to a truncal tic, inability to take public transportation, and inability to find steady work in their profession. […] They were on tetrabenazine at the time of referral to the study, but their response to this medication was limited by depressed mood symptoms and moderate fatigue.
Baseline Yale Global Tic Severity Score (YGTSS) score indicated a total motor score of 22, and a total vocal score of 17, for a total tic score (TTS) of 39 and a tic-related impairment score of 40; global severity was 79. Global Assessment of Functioning (GAF) score at baseline was 50.

[4] = test system: brain GABA levels; details: human, single dose; cited from earlier work

Sequence of γ-aminobutyric acid aminotransferase (GABA-AT) (P80147 29-500): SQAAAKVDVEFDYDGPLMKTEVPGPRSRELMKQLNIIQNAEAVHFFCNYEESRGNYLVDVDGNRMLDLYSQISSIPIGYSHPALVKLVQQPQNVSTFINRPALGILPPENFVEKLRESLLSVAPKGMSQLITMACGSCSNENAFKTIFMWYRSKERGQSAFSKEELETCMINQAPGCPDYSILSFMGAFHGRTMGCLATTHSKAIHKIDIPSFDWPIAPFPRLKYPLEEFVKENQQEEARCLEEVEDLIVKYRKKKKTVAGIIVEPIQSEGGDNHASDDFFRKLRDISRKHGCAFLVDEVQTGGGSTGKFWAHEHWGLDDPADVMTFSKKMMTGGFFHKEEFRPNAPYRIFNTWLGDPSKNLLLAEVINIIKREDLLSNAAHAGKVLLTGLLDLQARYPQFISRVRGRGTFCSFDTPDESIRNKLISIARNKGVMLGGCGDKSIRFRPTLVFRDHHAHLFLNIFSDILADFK

C=C1C[C@H](C(=O)O)C[C@@H]1N [Compound 2, (1S,3S)-3-amino-4-methylenyl-1-cyclopentanoic acid]
GABA-AT inactivation ([1]; 2-mercaptoethanol added to the incubation mixture): no inactivation occurred | GABA-AT inactivation ([1]; without 2-mercaptoethanol): inactivation of GABA-AT was observed

N[C@@H]1C=C[C@H](C(=O)O)C1 [compound 1, (1R,4S)-4-amino-cyclopent-2-ene-1-carboxylic acid]
specificity constant as GABA-AT substrate relative to GABA [1]: almost five times greater than that of GABA

C=CC(N)CCC(=O)O (stereo not drawn) [vigabatrin, γ-vinyl GABA]
inhibition of GABA uptake [2]: inhibits GABA uptake | tic severity, overall clinical outcome [3]: clinically significant and meaningful improvement in their tic severity | YGTSS total tic score (TTS) ([3]; GVG 2 grams, week 2, baseline TTS 39): 31 | YGTSS total tic score (TTS) ([3]; GVG 3 grams, week 3, baseline TTS 39): 27 | YGTSS total tic score (TTS) ([3]; GVG 3 grams, week 4, baseline TTS 39): 24 | YGTSS total tic score (TTS) ([3]; GVG 3 grams, week 5, baseline TTS 39): 21 | YGTSS total tic score (TTS) ([3]; GVG 3 grams, week 7, baseline TTS 39): 24 | adverse effect ([3]; GVG up to 3 grams, listed as GVG): minimal: tiredness and fatigue starting at 2 grams, which gradually attenuated; also recorded: mild and non-limiting adverse effect of fatigue | eye exam ([3]; at 7 weeks, overall, listed as GVG): normal, and showed no change from baseline; also recorded: unchanged and within normal limits | YGTSS total tic score (TTS) ([3]; week 1, dose figure not printed ('gram'), baseline TTS 39): 29 | Global Assessment of Functioning (GAF) score ([3]; week 7, baseline GAF 50): 65 | brain GABA levels after administration [4]: remain substantially elevated for several days
